Earlier results in patent US12427145B2, “Controlled release pharmaceutical composition of Selexipag or it's active metabolite” (Innovate Therapeutics LLC, priority 2019, dated 2025).
Where two headings read alike, the source gives them in different places.

What was measured:
[1] = fasting condition
[2] = study AC-065A303, 52 subjects out of 218 subjects
[3] = oral immediate release dosage form, out of 575 subjects

Structure (SMILES): CC(C)N(CCCCOCC(=O)NS(C)(=O)=O)c1cnc(-c2ccccc2)c(-c2ccccc2)n1 [Selexipag]
- subjects reporting Headache ([1]; 200 μg Selexipag, 1 out of 6 subjects): 17%
- subjects reporting Headache ([1]; 600 μg Selexipag, 2 out of 6 subjects): 33%
- subjects reporting Headache ([1]; 800 μg Selexipag, 5 out of 6 subjects): 83%
- subjects with at least 1 adverse event leading to discontinuation of study drug [2]: 24%
- Arthralgia, subjects [3]: 11%
- Diarrhea, subjects [3]: 42%
- Flushing, subjects [3]: 12%
- Headache, subjects [3]: 65%
- Jaw pain, subjects [3]: 26%
- Myalgia, subjects [3]: 16%
- Nausea, subjects [3]: 33%
- Pain in Extremity, subjects [3]: 17%
- Rash, subjects [3]: 11%
- Vomiting, subjects [3]: 18%
